Source: US20240174723A1, “STAPLED ANTIMICROBIAL PEPTIDES (STAMPS) AND USES THEREOF” (Lytica Therapeutics, Inc., priority 2021, published 2024)
Values after ≈ are worked out from the molar mass of the structure shown. Positions of bridges follow the written chain, without caps; N, C: chain ends. Non-standard residues stand in square brackets, D forms with d. Residues, ends and D or L forms follow the SMILES beside them. Phe(4-CF3) = N[C@@H](Cc1ccc(C(F)(F)F)cc1)C(=O)O; Phe(4-F) = N[C@@H](Cc1ccc(F)cc1)C(=O)O; S5 = C=CCCC[C@](C)(N)C(=O)O; Dab = NCC[C@H](N)C(=O)O; Dap = NC[C@H](N)C(=O)O

Tests used:
A. baumannii = format: cell-based, Acinetobacter baumannii
In short: (§1)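 StAMP peptides were tested by CLSI-adapted broth microdilution in MHB or cation-adjusted MHB II, final inoculum 5×10^5 CFU/ml from log-phase cultures. After 20-24 h at 37° C, MIC was taken as the lowest peptide concentration without visible growth.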

K. pneumoniae = format: cell-based, Klebsiella pneumoniae
In short: as §1

P. aeruginosa = format: cell-based, Pseudomonas aeruginosa
In short: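 Broth microdilution adapted from CLSI in MHB or cation-adjusted MHB; log-phase P. aeruginosa at 5×10^5 CFU/ml final with serially diluted stapled peptides. Incubated 20-24 h at 37 °C; MIC is the lowest concentration without visible growth.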

S. aureus = format: cell-based, Staphylococcus aureus
In short: as §1

E. coli = format: cell-based, Escherichia coli
In short: as §1

in vitro [1] = format: cell-based; conditions: human
Method: Cell culture: RPTEC were maintained in MEM media supplemented with growth factors. HEPG2 cell line was maintained in Eagle's Minimum Essential Medium (EMEM) supplemented with fetal bovine serum to a final concentration of 10%.
90 minute cytotoxicity assay: Cells were plated in a 96-well format, and after overnight incubation, media was replaced with fresh media. Serial dilutions of StAMPs from a 5 mg/mL water stock, or vehicle, were added to the cells in a final volume of 100 μl. After incubating at 37° C. for 90 min, 50 μl of cell culture media was transferred to a clear 96-well plate, incubated with 50 μl of lactate dehydrogenase (LDH) assay reagent for 10 min, and absorbance measured at 490 nm on a microplate reader.
Renal toxicity was measured after 90 minutes of incubation, while liver toxicity was measured after 48 hours of incubation with StAMPs. N/A=not tested. The following apply to all peptides (i.e., StAMPs) listed in Tables A-C: Crosslinks (X^1—X^2 and X^3—X^4): (alk); N-terminus: —NH2; C-terminus: amidated with —NH2; counterion: Cl^−. The following apply to all peptides (i.e., StAMPs) listed in Table D: Crosslinks (X^1—X^2 and X^3—X^4): (alk); N-terminus: —NH2; C-terminus: as shown in table; counterion: Cl^−.
StAMP Micelle Formulation: DSPE-MPEG(2000) was suspended in buffered saline at 50-100 mg/mL overnight. StAMP stock solutions at 5-20 mg/mL in buffered saline were prepared and equal volumes of micelle and StAMP stock solution were mixed at the desired StAMP:Lipid ratio. Suspensions were allowed to sit for 5-10 minutes at room temperature before being used in in vitro and in vivo assays.
In Table E, the StAMP is StAMP 4 (Table A) and “Lipid”=DSPE-MPEG(2000).

in vitro [2] = format: cell-based; conditions: human, Inhibitory Concentration at 50% Cytotoxicity (IC50) Human Liver Cells (HepG2)
In short: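 HepG2 cells in EMEM with 10% FBS, allowed 4 h to attach, then exposed to serial dilutions of StAMPs (from a 5 mg/mL water stock) or vehicle. After 48 h at 37 °C, viability read by CellTiter-Glo luminescence.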

For CC(C)[C@@H]1NC(=O)[C@H](C(C)C)NC(=O)[C@@](C)(NC(=O)[C@H](C)NC(=O)[C@H](CCCCN)NC(=O)CNC(=O)[C@H](Cc2ccc(C(F)(F)F)cc2)NC(=O)[C@H](CCCCN)NC(=O)[C@H](CCCCN)NC(=O)[C@H](CCCCN)NC(=O)[C@H](CCCCN)NC(=O)[C@H](Cc2c[nH]cn2)NC(=O)[C@]2(C)CCCC=CCCC[C@](C)(NC(=O)CN)C(=O)NCC(=O)N[C@@H](CCCCN)C(=O)N[C@@H](Cc3ccc(C(F)(F)F)cc3)C(=O)N2)CCCC=CCCC[C@@](C)(C(=O)N[C@@H](C)C(=O)N[C@@H](CCCCN)C(=O)N[C@@H](CCCCN)C(N)=O)NC(=O)[C@H](CCC(=O)O)NC1=O [compound 30] (H-G[S5]GK[Phe(4-CF3)][S5]HKKKK[Phe(4-CF3)]GKA[S5]VVE[S5]AKK-NH2; staple 2-6, 16-20), the “Minimum Inhibitory Concentration (MIC) A. baumannii” value (A. baumannii) was 2 µg/mL, the “Minimum Inhibitory Concentration (MIC) K. pneumoniae” value (K. pneumoniae) was 4 µg/mL and the “Minimum Inhibitory Concentration (MIC) P. aeruginosa” value (P. aeruginosa) was 4 µg/mL. The “Minimum Inhibitory Concentration (MIC) S. aureus” value (S. aureus) was 32 µg/mL, the “Minimum Inhibitory Concentration (MIC) E. coli” value (E. coli) was 2 µg/mL and the IC50 at 90 min (in vitro [1]) was 17 µg/mL (≈ 6.18 µM).
In the case of CC(C)[C@@H]1NC(=O)[C@H](C(C)C)NC(=O)[C@@](C)(NC(=O)[C@H](C)NC(=O)[C@H](CCCCN)NC(=O)CNC(=O)[C@H](Cc2ccc(F)cc2)NC(=O)[C@H](CCCCN)NC(=O)[C@H](CCCCN)NC(=O)[C@H](CCCCN)NC(=O)[C@H](CCCCN)NC(=O)[C@H](Cc2c[nH]cn2)NC(=O)[C@]2(C)CCCC=CCCC[C@](C)(NC(=O)CN)C(=O)NCC(=O)N[C@@H](CCCCN)C(=O)N[C@@H](Cc3ccc(F)cc3)C(=O)N2)CCCC=CCCC[C@@](C)(C(=O)N[C@@H](C)C(=O)N[C@@H](CCCCN)C(=O)N[C@@H](CCCCN)C(N)=O)NC(=O)[C@H](CCC(=O)O)NC1=O [compound 29] (H-G[S5]GK[Phe(4-F)][S5]HKKKK[Phe(4-F)]GKA[S5]VVE[S5]AKK-NH2; staple 2-6, 16-20), the “Minimum Inhibitory Concentration (MIC) A. baumannii” value (A. baumannii) is reported as 2 µg/mL, the “Minimum Inhibitory Concentration (MIC) K. pneumoniae” value (K. pneumoniae) is reported as 4 µg/mL and the “Minimum Inhibitory Concentration (MIC) P. aeruginosa” value (P. aeruginosa) is reported as 4 µg/mL. The “Minimum Inhibitory Concentration (MIC) S. aureus” value (S. aureus) was greater than 64 µg/mL, the “Minimum Inhibitory Concentration (MIC) E. coli” value (E. coli) was 2 µg/mL and the IC50 at 90 min (in vitro [1]) was 86 µg/mL (≈ 32.4 µM).
In the case of CC(C)[C@@H]1NC(=O)[C@@](C)(NC(=O)[C@H](C)NC(=O)[C@H](CCCCN)NC(=O)CNC(=O)[C@H](Cc2ccccc2)NC(=O)[C@H](CCCCN)NC(=O)[C@H](CCCCN)NC(=O)[C@H](CCCCN)NC(=O)[C@H](CCCCN)NC(=O)[C@H](CCCCN)NC(=O)[C@]2(C)CCCC=CCCC[C@](C)(NC(=O)CN)C(=O)NCC(=O)N[C@@H](CCN)C(=O)N[C@@H](Cc3ccccc3)C(=O)N2)CCCC=CCCC[C@@](C)(C(=O)N[C@@H](C)C(=O)N[C@@H](CCCCN)C(=O)N[C@@H](CCCCN)C(N)=O)NC(=O)[C@H](CCC(=O)O)NC(=O)CNC1=O [compound 37] (H-G[S5]G[Dab]F[S5]KKKKKFGKA[S5]VGE[S5]AKK-NH2; staple 2-6, 16-20), the “Minimum Inhibitory Concentration (MIC) A. baumannii” value (A. baumannii) is reported as 2 µg/mL, the “Minimum Inhibitory Concentration (MIC) K. pneumoniae” value (K. pneumoniae) is reported as 4 µg/mL and the “Minimum Inhibitory Concentration (MIC) P. aeruginosa” value (P. aeruginosa) is reported as 2 µg/mL. The “Minimum Inhibitory Concentration (MIC) S. aureus” value (S. aureus) was greater than 64 µg/mL, the “Minimum Inhibitory Concentration (MIC) E. coli” value (E. coli) was 2 µg/mL and the IC50 at 90 min (in vitro [1]) was 113 µg/mL (≈ 44.6 µM).
For CC(C)[C@@H]1NC(=O)[C@@](C)(NC(=O)[C@H](C)NC(=O)[C@H](CCCCN)NC(=O)CNC(=O)[C@H](Cc2ccccc2)NC(=O)[C@H](CCCCN)NC(=O)[C@H](CCCCN)NC(=O)[C@H](CN)NC(=O)[C@H](CCCCN)NC(=O)[C@H](CN)NC(=O)[C@]2(C)CCCC=CCCC[C@](C)(NC(=O)CN)C(=O)NCC(=O)N[C@@H](CCCCN)C(=O)N[C@@H](Cc3ccccc3)C(=O)N2)CCCC=CCCC[C@@](C)(C(=O)N[C@@H](C)C(=O)N[C@@H](CCCCN)C(=O)N[C@@H](CCCCN)C(=O)NCC(=O)NCC(=O)N[C@@H](CCC(=O)O)C(N)=O)NC(=O)[C@H](CCC(=O)O)NC(=O)CNC1=O [compound 83] (H-G[S5]GKF[S5][Dap]K[Dap]KKFGKA[S5]VGE[S5]AKKGGE-NH2; staple 2-6, 16-20), the “Minimum Inhibitory Concentration (MIC) A. baumannii” value (A. baumannii) was 64 µg/mL, the “Minimum Inhibitory Concentration (MIC) K. pneumoniae” value (K. pneumoniae) was greater than 64 µg/mL and the “Minimum Inhibitory Concentration (MIC) P. aeruginosa” value (P. aeruginosa) was 32 µg/mL. For the same compound, the “Minimum Inhibitory Concentration (MIC) S. aureus” value (S. aureus) was greater than 64 µg/mL, the IC50 at 48 hours (in vitro [2]) was greater than 200 µg/mL and the “Minimum Inhibitory Concentration (MIC) E. coli” value (E. coli) was 64 µg/mL.
With CC(C)[C@@H]1NC(=O)[C@@](C)(NC(=O)[C@H](CO)NC(=O)[C@H](CCCCN)NC(=O)CNC(=O)[C@H](Cc2ccccc2)NC(=O)[C@H](CCCCN)NC(=O)[C@H](CCCCN)NC(=O)[C@H](CCCCN)NC(=O)[C@H](CCCCN)NC(=O)[C@H](CN)NC(=O)[C@]2(C)CCCC=CCCC[C@](C)(NC(=O)CN)C(=O)NCC(=O)N[C@@H](CCCCN)C(=O)N[C@@H](Cc3ccccc3)C(=O)N2)CCCC=CCCC[C@@](C)(C(=O)N[C@@H](C)C(=O)N[C@@H](CCCCN)C(=O)N[C@@H](CCCCN)C(N)=O)NC(=O)[C@H](CCC(=O)O)NC(=O)CNC1=O [compound 87] (H-G[S5]GKF[S5][Dap]KKKKFGKS[S5]VGE[S5]AKK-NH2; staple 2-6, 16-20) the “Minimum Inhibitory Concentration (MIC) A. baumannii” value (A. baumannii) was 1 µg/mL, the “Minimum Inhibitory Concentration (MIC) K. pneumoniae” value (K. pneumoniae) was 64 µg/mL and the “Minimum Inhibitory Concentration (MIC) P. aeruginosa” value (P. aeruginosa) was 2 µg/mL. The “Minimum Inhibitory Concentration (MIC) S. aureus” value (S. aureus) was 64 µg/mL, the IC50 at 48 hours (in vitro [2]) was greater than 200 µg/mL and the “Minimum Inhibitory Concentration (MIC) E. coli” value (E. coli) was 4 µg/mL.
For CC(C)[C@@H]1NC(=O)[C@@](C)(NC(=O)[C@H](C)NC(=O)[C@H](CCCCN)NC(=O)CNC(=O)[C@H](Cc2ccccc2)NC(=O)[C@H](CCCCN)NC(=O)[C@H](CCCCN)NC(=O)[C@H](CCCCN)NC(=O)[C@H](CCCCN)NC(=O)[C@H](CN)NC(=O)[C@]2(C)CCCC=CCCC[C@](C)(NC(=O)CN)C(=O)NCC(=O)N[C@@H](CCCCN)C(=O)N[C@@H](Cc3ccccc3)C(=O)N2)CCCC=CCCC[C@@](C)(C(=O)N[C@@H](C)C(=O)N[C@@H](CCCCN)C(=O)N[C@@H](CCCCN)C(N)=O)NC(=O)[C@H](CCC(=O)O)NC(=O)CNC1=O [compound 46] (H-G[S5]GKF[S5][Dap]KKKKFGKA[S5]VGE[S5]AKK-NH2; staple 2-6, 16-20), the “Minimum Inhibitory Concentration (MIC) A. baumannii” value (A. baumannii) was 2 µg/mL, the “Minimum Inhibitory Concentration (MIC) K. pneumoniae” value (K. pneumoniae) was 8 µg/mL and the “Minimum Inhibitory Concentration (MIC) P. aeruginosa” value (P. aeruginosa) was 4 µg/mL. The “Minimum Inhibitory Concentration (MIC) S. aureus” value (S. aureus) was 64 µg/mL, the IC50 at 48 hours (in vitro [2]) was 299 µg/mL (≈ 119 µM) and the “Minimum Inhibitory Concentration (MIC) E. coli” value (E. coli) was 2 µg/mL.
In the case of CC(C)[C@@H]1NC(=O)[C@@](C)(NC(=O)[C@H](C)NC(=O)[C@H](CCCCN)NC(=O)CNC(=O)[C@H](Cc2ccccc2)NC(=O)[C@H](CCCCN)NC(=O)[C@H](CCCCN)NC(=O)[C@H](CN)NC(=O)[C@H](CCCCN)NC(=O)[C@H](CCCCN)NC(=O)[C@]2(C)CCCC=CCCC[C@](C)(NC(=O)CN)C(=O)NCC(=O)N[C@@H](CCCCN)C(=O)N[C@@H](Cc3ccccc3)C(=O)N2)CCCC=CCCC[C@@](C)(C(=O)N[C@@H](C)C(=O)N[C@@H](CCCCN)C(=O)N[C@@H](CCCCN)C(=O)NCC(=O)NCC(=O)N[C@@H](CCC(=O)O)C(N)=O)NC(=O)[C@H](CCC(=O)O)NC(=O)CNC1=O [compound 81] (H-G[S5]GKF[S5]KK[Dap]KKFGKA[S5]VGE[S5]AKKGGE-NH2; staple 2-6, 16-20), the “Minimum Inhibitory Concentration (MIC) A. baumannii” value (A. baumannii) is reported as 4 µg/mL, the “Minimum Inhibitory Concentration (MIC) K. pneumoniae” value (K. pneumoniae) is reported as 64 µg/mL and the “Minimum Inhibitory Concentration (MIC) P. aeruginosa” value (P. aeruginosa) is reported as 16 µg/mL. The “Minimum Inhibitory Concentration (MIC) S. aureus” value (S. aureus) was greater than 64 µg/mL, the IC50 at 48 hours (in vitro [2]) was greater than 200 µg/mL and the “Minimum Inhibitory Concentration (MIC) E. coli” value (E. coli) was 8 µg/mL.
